Measurements reported in article PMC11562016 (Structure (London, England : 1993), 2024).
Several values for one entry are separate records, joined by “and”; a condition that tells them apart may be missing. Equal values may be shown once. Read-outs that look alike come from different tables or passages of the source.

How the values were obtained:
[1] = target: human α1β GlyR (α1:β, α1wtβwt) (Homo sapiens, UniProt P23415+P48167); conditions: for τdes: desensitization
α1:βY231A GlyR = α1:βY231A GlyR (Homo sapiens, UniProt P23415+P48167, Y253A)
α1:βR86TY231A GlyR = α1:βR86TY231A GlyR (Homo sapiens, UniProt P23415+P48167, R108T/Y253A)
[2] = target: α1:α1-β-α1 FYF (α1: α1F207A-βY231A-α1F207A) GlyR (Homo sapiens, UniProt P23415+P48167, F235A/Y253A)
[3] = target: α1:α1-β-α1 RFYF (α1: α1R65DF207A-βY231A-α1F207A) GlyR (Homo sapiens, UniProt P23415+P48167, F235A/R93D/Y253A)
α1F207A:β GlyR = α1F207A:β GlyR (Homo sapiens, UniProt P23415+P48167, F235A)
α1F207A:α1-β GlyR = α1F207A:α1-β GlyR (Homo sapiens, UniProt P23415+P48167, F235A)
α1F207A:α1-β-α1 GlyR = α1F207A:α1-β-α1 GlyR (Homo sapiens, UniProt P23415+P48167, F235A)
α1sβsg GlyR = conditions: for τdes: desensitization
[4] = test system: α1β GlyR with mutation of a single α-α or α-β site; conditions: Supplementary Fig.S4
[5] = glycine dose-response, Hill fit

α1:α1-β-α1 RFYF (α1: α1R65DF207A-βY231A-α1F207A) GlyR, sequence (P23415 29-457, stated change not applied): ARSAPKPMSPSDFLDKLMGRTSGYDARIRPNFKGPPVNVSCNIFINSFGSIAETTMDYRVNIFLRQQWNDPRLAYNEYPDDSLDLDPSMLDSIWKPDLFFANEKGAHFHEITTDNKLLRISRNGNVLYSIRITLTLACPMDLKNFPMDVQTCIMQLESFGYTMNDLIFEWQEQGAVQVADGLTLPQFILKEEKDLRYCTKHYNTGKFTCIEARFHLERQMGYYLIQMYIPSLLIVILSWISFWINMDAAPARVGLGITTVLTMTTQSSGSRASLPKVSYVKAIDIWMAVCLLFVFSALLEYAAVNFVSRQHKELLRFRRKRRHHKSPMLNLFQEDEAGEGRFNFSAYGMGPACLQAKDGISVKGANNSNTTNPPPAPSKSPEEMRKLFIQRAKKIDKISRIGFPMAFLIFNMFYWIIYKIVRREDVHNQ
α1:α1-β-α1 RFYF (α1: α1R65DF207A-βY231A-α1F207A) GlyR, sequence (P23415 29-457 R93D/F235A): as the sequence (P23415 29-457, stated change not applied) above, with R65D, F207A counted along it
α1:α1-β-α1 RFYF (α1: α1R65DF207A-βY231A-α1F207A) GlyR, sequence (P48167 23-497 Y253A): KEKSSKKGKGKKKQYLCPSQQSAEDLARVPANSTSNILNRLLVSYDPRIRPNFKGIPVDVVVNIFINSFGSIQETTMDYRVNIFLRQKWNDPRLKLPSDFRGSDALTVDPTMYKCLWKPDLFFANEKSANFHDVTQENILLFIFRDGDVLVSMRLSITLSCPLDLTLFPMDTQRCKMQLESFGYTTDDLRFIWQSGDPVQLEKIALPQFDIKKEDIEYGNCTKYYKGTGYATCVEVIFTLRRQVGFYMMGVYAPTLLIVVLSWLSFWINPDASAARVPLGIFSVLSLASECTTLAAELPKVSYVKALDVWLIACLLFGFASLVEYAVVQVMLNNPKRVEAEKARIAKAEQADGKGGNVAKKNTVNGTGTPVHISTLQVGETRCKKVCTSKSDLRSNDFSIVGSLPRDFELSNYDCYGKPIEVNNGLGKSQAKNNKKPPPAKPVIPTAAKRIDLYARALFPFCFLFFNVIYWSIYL
α1:α1-β-α1 RFYF (α1: α1R65DF207A-βY231A-α1F207A) GlyR, sequence (P23415 29-457 F235A): as the sequence (P23415 29-457, stated change not applied) above, with F207A counted along it
human α1β GlyR (α1:β, α1wtβwt), sequence (P23415 29-457): as the sequence (P23415 29-457, stated change not applied) above
human α1β GlyR (α1:β, α1wtβwt), sequence (P48167 23-497): as the sequence (P48167 23-497 Y253A) above, with A231Y counted along it
α1F207A:α1-β GlyR, sequence (P23415 29-457 F235A): as the sequence (P23415 29-457, stated change not applied) above, with F207A counted along it
α1F207A:α1-β GlyR, sequence (P23415 29-457, stated change not applied): as the sequence (P23415 29-457, stated change not applied) above
α1F207A:α1-β GlyR, sequence (P48167 23-497): as the sequence (P48167 23-497 Y253A) above, with A231Y counted along it
α1F207A:β GlyR, sequence (P23415 29-457 F235A): as the sequence (P23415 29-457, stated change not applied) above, with F207A counted along it
α1F207A:β GlyR, sequence (P48167 23-497): as the sequence (P48167 23-497 Y253A) above, with A231Y counted along it
α1F207A:α1-β-α1 GlyR, sequence (P23415 29-457 F235A): as the sequence (P23415 29-457, stated change not applied) above, with F207A counted along it
α1F207A:α1-β-α1 GlyR, sequence (P23415 29-457, stated change not applied): as the sequence (P23415 29-457, stated change not applied) above
α1F207A:α1-β-α1 GlyR, sequence (P48167 23-497): as the sequence (P48167 23-497 Y253A) above, with A231Y counted along it
α1F207A:α1-β-α1 GlyR, sequence (P23415 29-457, stated change not applied): as the sequence (P23415 29-457, stated change not applied) above
α1:βY231A GlyR, sequence (P23415 29-457): as the sequence (P23415 29-457, stated change not applied) above
α1:βY231A GlyR, sequence (P48167 23-497 Y253A): as the sequence (P48167 23-497 Y253A) above
α1:βR86TY231A GlyR, sequence (P23415 29-457): as the sequence (P23415 29-457, stated change not applied) above
α1:βR86TY231A GlyR, sequence (P48167 23-497 R108T/Y253A): as the sequence (P48167 23-497 Y253A) above, with R86T counted along it
α1:α1-β-α1 FYF (α1: α1F207A-βY231A-α1F207A) GlyR, sequence (P23415 29-457, stated change not applied): as the sequence (P23415 29-457, stated change not applied) above
α1:α1-β-α1 FYF (α1: α1F207A-βY231A-α1F207A) GlyR, sequence (P23415 29-457 F235A): as the sequence (P23415 29-457, stated change not applied) above, with F207A counted along it
α1:α1-β-α1 FYF (α1: α1F207A-βY231A-α1F207A) GlyR, sequence (P48167 23-497 Y253A): as the sequence (P48167 23-497 Y253A) above
α1:α1-β-α1 FYF (α1: α1F207A-βY231A-α1F207A) GlyR, sequence (P23415 29-457 F235A): as the sequence (P23415 29-457, stated change not applied) above, with F207A counted along it

NCC(=O)O [glycine, Glycine]
current remaining after desensitization ([1]; 40 μM glycine): ~ 66% | τclose ([1]; 40 μM glycine): 0.3 ± 0.1 s | τopen ([1]; 40 μM glycine): 0.6 ± 0.3 s | τdes ([1]; 40 μM glycine): 4.8 ± 0.9 s | τclose ([1]; 100 μM glycine): 0.3 ± 0.1 s | τopen ([1]; 100 μM glycine): 0.18 ± 0.03 s | τdes ([1]; 100 μM glycine): 7.5 ± 1.2 s | τclose ([1]; 200 μM glycine): 1.1 ± 0.1 s | τopen ([1]; 200 μM glycine): 0.07 ± 0.01 s | τdes ([1]; 200 μM glycine): 7.8 ± 0.6 s | current remaining after desensitization ([1]; 1 mM glycine): ~ 18% | τclose ([1]; 1000 μM glycine): 1.0 ± 0.1 s | τopen ([1]; 1000 μM glycine): 0.06 ± 0.01 s | τdes ([1]; 1000 μM glycine): 6.5 ± 0.4 s | increase in desensitization recovery time constant ([1]; 1 mM vs 40 μM glycine): ~ 7 fold | increase in the extent of desensitization ([1]; 1 mM vs 40 μM glycine): ~ 4 fold | current remaining after desensitization (residual activity) ([1]; 10 mM glycine): ~ 3% | desensitization time constants ([1]; across glycine concentrations 40 μM to 10 mM): 5 to 8 s | τclose ([1]; beyond 200 μM glycine): ~ 1.1 s | nh (Hill coefficent) [1, 5]: 2.5 ± 0.4 | minimum τopen ([1]; increased glycine concentrations, likely limited by instrument): 60 ms | Imax, maximum glycine-induced current amplitude ([1]; whole-cell, -70 mV): 7.0 ± 0.9 nA | Imax, maximum glycine-induced current amplitude (α1:βY231A GlyR): 5.0 ± 0.7 nA | nh (Hill coefficent) (α1:βY231A GlyR; [5]): 3.1 ± 0.5 | Imax, maximum glycine-induced current amplitude (α1:βR86TY231A GlyR): 7.1 ± 0.5 nA | nh (Hill coefficent) (α1:βR86TY231A GlyR; [5]): 2.1 ± 0.3 | Imax, maximum glycine-induced current amplitude [2]: 4.5 ± 0.7 nA | nh (Hill coefficent) [2, 5]: 2.2 ± 0.4 | Imax, maximum glycine-induced current amplitude [3]: 0.8 ± 0.3 nA | nh (Hill coefficent) [3, 5]: 1.6 ± 2.0 | channel activation by glycine ([3]; only 1 intact glycine site): inactive | Imax, maximum glycine-induced current amplitude (α1F207A:β GlyR): 0.8 ± 0.2 nA | nh (Hill coefficent) (α1F207A:β GlyR; [5]): 1.4 ± 1.5 | Imax, maximum glycine-induced current amplitude (α1F207A:α1-β GlyR): 0.2 ± 0.1 nA | nh (Hill coefficent) (α1F207A:α1-β GlyR; [5]): 1.0 ± 0.6 | Imax, maximum glycine-induced current amplitude (α1F207A:α1-β-α1 GlyR): 0.5 ± 0.1 nA | nh (Hill coefficent) (α1F207A:α1-β-α1 GlyR; [5]): 1.8 ± 3.3 | I des / Imax (α1sβsg GlyR; 40 μM glycine): 0.74 ± 0.05 | τclose (α1sβsg GlyR; 40 μM glycine): 0.4 ± 0.1 s | τopen (α1sβsg GlyR; 40 μM glycine): 0.9 ± 0.1 s | τdes (α1sβsg GlyR; 40 μM glycine): 5.4 ± 1.2 s | I des / Imax (α1sβsg GlyR; 100 μM glycine): 0.38 ± 0.05 | τclose (α1sβsg GlyR; 100 μM glycine): 0.5 ± 0.1 s | τopen (α1sβsg GlyR; 100 μM glycine): 0.5 ± 0.1 s | τdes (α1sβsg GlyR; 100 μM glycine): 7.0 ± 1.3 s | I des / Imax (α1sβsg GlyR; 1000 μM glycine): 0.17 ± 0.03 | τclose (α1sβsg GlyR; 1000 μM glycine): 0.9 ± 0.3 s | τopen (α1sβsg GlyR; 1000 μM glycine): 0.06 ± 0.01 s | τdes (α1sβsg GlyR; 1000 μM glycine): 8.8 ± 1.8 s | EC50 (α1sβsg GlyR; glycine response normalized to 1 mM glycine): ~100 µM | desensitization forward rate constant kdes (α1β GlyR; model parameter): 0.18 ± 0.05 and 0.18 | desensitization reverse rate constant kdes_r (α1β GlyR; model parameter): 0.007 ± 0.002 and 0.007 | rate scaler after desensitization ndes (α1β GlyR; model parameter): 0.006 ± 0.007 and 0.006 | dissociation rate constants kdα = kdβ (α1β GlyR; model parameter matched to full recording traces): 10 ± 2 | EC50 [4]: ~140 µM
